Patent publication EP0091519A1, “Topical acylaminophenols” (Johnson & Johnson Products Inc., priority 1982, dated 1983)

Columns and labels:
[1] = test system: arachidonic acid-induced epidermal proliferation; assay: Arachidonic acid-induced epidermal proliferation in guinea pig ear skin (3H-thymidine labelling, liquid scintillation counting); format: in vivo; details: for cpm S.E.: 25 µl topical on ear once daily for four days after 1% AA, mean ± S.E.; for inhibition in vivo at 1 %: Cavia porcellus, 1% drug topical, versus contralateral vehicle-treated ear, * statistically significant, + not significant due to variability, read-out: % Re-duction (cpm, proliferation); for effect on AA-induced proliferation (in words): topical application, 1% unless otherwise stated
Method: (§1) The effect of selected compositions on cutaneous inflammation caused by topical application of arachidonic acid was evaluated. In addition to inflammation, the proliferative response of the epidermis treated with arachidonic acid and the compositions was evaluated. Fourteen acylaminophenols were studied. The drugs were dissolved in propylene glycol plus ethanol (30:70) and were used at 1% concentrations unless otherwise stated. Fourteen groups of five guinea pigs each served as the experimental subjects. The dorsal skin of both ears was treated once daily for four days (9:00 am) with 25 µl 1% solution of AA in propylene glycol/ethanol (30/70). Immediately after this application, one ear of each guinea pig was randomly chosen for application of 25 µl of the test compound, while the contralateral ear received the vehicle, alone. During the four-day experimental period, DNA synthesized was labeled by continuous administration of a radioactive'precursor, ^3H-thymidine (3 i.p. injections/day of 10µCi each). Erythema developing in response to topical AA was measured daily on a subjective scale of 0 to 3; where 0 = none,1= mild, 2 = moderate, and 3 = intense. The average erythema scores were plotted as a function of time, and areas under the response curves were determined for expression of total erythema. On the fifth day, animals were killed and six mm diameter circular samples of dorsal skin from the central portion of the treatment sites were harvested and solubilized in NCS® solubilizer. These tissue solutions were acidified and a simple fluor (diphenyloxazole in toluene) was added for determination of radioactivity by liquid scintillation counting. Radioactivity expressed as counts-per-minute (cpm) correlate with the amount of proliferative activity in the epidermis.

[2] = test system: arachidonic acid-induced erythema; assay: Arachidonic acid-induced erythema in guinea pig ear skin (subjective score 0 to 3, area under response curve); format: in vivo; details: for Total Erythema: area under curve of average erythema score (0 to 3) over four days; for inhibition in vivo at 1 %: Cavia porcellus, versus contralateral vehicle-treated ear, read-out: % Re-duction (Total Erythema); for effect on AA-induced erythema (in words): topical application, 1% unless otherwise stated
Method: as §1

[3] = 1% drug in propylene glycol/ethanol (30:70), 6 mm skin sample on fifth day

O=C(Nc1ccc(O)cc1)c1ccccc1O
cpm S.E. [1, 3]: 1532± 91 cpm
inhibition in vivo at 1 % [1]: 23.3%
effect on AA-induced proliferation (in words) [1]: showed activity
Total Erythema ([2]; 1% drug topical): 3.2
inhibition in vivo at 1 % ([2]; 1% drug topical): 41.8%
effect on AA-induced erythema (in words) [2]: showed activity

O=C(Nc1ccc(O)cc1)c1ccccc1 [4-benzoylaminophenol, reference compound]
cpm S.E. [1, 3]: 2214±316 cpm
inhibition in vivo at 1 % [1]: 4.2%
effect on AA-induced proliferation (in words) [1]: inactive
Total Erythema ([2]; 1% drug topical): 3.8
inhibition in vivo at 1 % ([2]; 1% drug topical): 20.8%
effect on AA-induced erythema (in words) [2]: inactive

CCCC(=O)Nc1ccc(O)cc1 [4-n-butyroylaminophenol, reference compound]
cpm S.E. [1, 3]: 2680±360 cpm
inhibition in vivo at 1 % [1]: 27.8%
effect on AA-induced proliferation (in words) [1]: significantly inhibited
Total Erythema ([2]; 1% drug topical): 4.6
inhibition in vivo at 1 % ([2]; 1% drug topical): 4.2%
effect on AA-induced erythema (in words) [2]: without effect

CCCCCCCCCC(=O)Nc1ccc(O)cc1 [4-n-decanoylaminophenol]
cpm S.E. [1, 3]: 1311± 48 cpm
inhibition in vivo at 1 % [1]: 37.5%
effect on AA-induced proliferation (in words) [1]: good activity
Total Erythema ([2]; 1% drug topical): 2.0
inhibition in vivo at 1 % ([2]; 1% drug topical): 47.4%
effect on AA-induced erythema (in words) [2]: good activity

CCCCCCCCCCCC(=O)Nc1ccc(O)cc1 [4-n-dodecanoylaminophenol]
cpm S.E. [1, 3]: 2487±368 cpm
inhibition in vivo at 1 % [1]: 29%
effect on AA-induced proliferation (in words) [1]: good activity
Total Erythema ([2]; 1% drug topical): 3.8
inhibition in vivo at 1 % ([2]; 1% drug topical): 29%
effect on AA-induced erythema (in words) [2]: good activity

CCCCCCC(=O)Nc1ccc(O)cc1 [4-n-heptanoylaminophenol]
cpm S.E. [1, 3]: 1435± 77 cpm
inhibition in vivo at 1 % [1]: 27.3%
effect on AA-induced proliferation (in words) [1]: good activity
Total Erythema ([2]; 1% drug topical): 1.8
inhibition in vivo at 1 % ([2]; 1% drug topical): 47%
effect on AA-induced erythema (in words) [2]: good activity

CCCCCCCCCCCCCCCC(=O)Nc1ccc(O)cc1 [4-n-hexadecanoylaminophenol, reference compound]
cpm S.E. ([1]; 0.56% drug in propylene glycol/ethanol (30:70)): 3275±463 cpm
effect on AA-induced proliferation (in words) [1]: without substantial effect
Total Erythema ([2]; 0.56% drug topical): 4.8
effect on AA-induced erythema (in words) [2]: without substantial effect

CCCCCC(=O)Nc1ccc(O)cc1 [4-n-hexanoylaminophenol]
cpm S.E. [1, 3]: 1488±104 cpm
inhibition in vivo at 1 % [1]: 28.3%
effect on AA-induced proliferation (in words) [1]: good activity
Total Erythema ([2]; 1% drug topical): 1.9
inhibition in vivo at 1 % ([2]; 1% drug topical): 50%
effect on AA-induced erythema (in words) [2]: good activity

CCCCCCCCC(=O)Nc1ccc(O)cc1 [4-n-nonanoylaminophenol]
cpm S.E. [1, 3]: 1472±135 cpm
inhibition in vivo at 1 % [1]: 20.9%
effect on AA-induced proliferation (in words) [1]: good activity
Total Erythema ([2]; 1% drug topical): 2.1
inhibition in vivo at 1 % ([2]; 1% drug topical): 34.4%
effect on AA-induced erythema (in words) [2]: good activity

CCCCCCCC(=O)Nc1ccc(O)cc1 [4-n-octanoylaminophenol]
cpm S.E. [1, 3]: 1589±361 cpm
inhibition in vivo at 1 % [1]: 39.1%
effect on AA-induced proliferation (in words) [1]: good activity
Total Erythema ([2]; 1% drug topical): 2.7
inhibition in vivo at 1 % ([2]; 1% drug topical): 49%
effect on AA-induced erythema (in words) [2]: good activity

CCCCCCCCCCCCCC(=O)Nc1ccc(O)cc1 [4-n-tetradecanoylaminophenol, reference compound]
cpm S.E. [1, 3]: 1681±296 cpm
inhibition in vivo at 1 % [1]: 15.1%
effect on AA-induced proliferation (in words) [1]: without substantial effect
Total Erythema ([2]; 1% drug topical): 3.8
inhibition in vivo at 1 % ([2]; 1% drug topical): 0%
effect on AA-induced erythema (in words) [2]: without substantial effect

CCCCCCCCCCC(=O)Nc1ccc(O)cc1 [4-n-undecanoylaminophenol]
cpm S.E. [1, 3]: 1380±205 cpm
inhibition in vivo at 1 % [1]: 37.3%
effect on AA-induced proliferation (in words) [1]: good activity
Total Erythema ([2]; 1% drug topical): 2.1
inhibition in vivo at 1 % ([2]; 1% drug topical): 38.2%
effect on AA-induced erythema (in words) [2]: good activity

CCC(=O)Nc1ccc(O)cc1 [4-propionylaminophenol, reference compound]
cpm S.E. [1, 3]: 1777±251 cpm
inhibition in vivo at 1 % [1]: 2.6%
effect on AA-induced proliferation (in words) [1]: without substantial effect
Total Erythema ([2]; 1% drug topical): 5.5
inhibition in vivo at 1 % ([2]; 1% drug topical): -14.6%
effect on AA-induced erythema (in words) [2]: without substantial effect

CC(=O)Nc1ccc(O)cc1 [Acetaminophen, acetamidophenol, reference compound]
cpm S.E. [1, 3]: 3140±346 cpm
inhibition in vivo at 1 % [1]: 8%
effect on AA-induced proliferation (in words) [1]: no significant effect
Total Erythema ([2]; 1% drug topical): 5.2
inhibition in vivo at 1 % ([2]; 1% drug topical): 0%
effect on AA-induced erythema (in words) [2]: no significant effect
